Source: paper PMC11091976, “Shorter Peptide Nucleic Acid Probes Improve Affibody-Mediated Peptide Nucleic Acid-Based Pretargeting” (ACS Pharmacology & Translational Science, 2024)

Tested on: Z-HP9
Test: Multicycle kinetic SPR, immobilized Z-HP9
Assay type: binding
Details: MCK SPR
Protocol: We utilized SPR on a Biacore T200 instrument (Cytiva) to examine how secondary PNA probes (6-mer HP19, 7-mer HP21, 8-mer HP20, and 9-mer HP16) bind to primary agents. These experiments were conducted using dextran-coated CM5 sensor chips and PBS-T buffer at pH 7.4. The ligands were immobilized through a standard EDC/NHS coupling method, and the chip surface was sealed with ethanolamine. A reference surface with no primary agent was also included.
Association and dissociation times were set at 700 and 1800 s, respectively, with regeneration accomplished through a 30 s injection of 10 mM glycine-HCl, pH 1.5.
All SPR experiments were performed in duplicate, and data analysis was conducted using the Biacore T200 Evaluation software version 2.0 with a 1:1 binding model.

Kd (primary probe HP9, 25 °C): 0.27 nM
kd (primary probe HP9, 25 °C): 4.8 × 10^–5 s^–1
Kd (primary probe HP9, 37 °C): 0.39 nM
kd (primary probe HP9, 37 °C): 1.1 × 10^–4 s^–1
Substance: DOTA-AEEA-SS-aacaccagg-EEY-NH2 [HP16, 9-mer secondary PNA probe with DOTA]
ka (primary probe HP9 (Z-HP9 immobilized), 25 °C, 1.4-70 nM, 1:1 model, duplicates): 1.8 × 10^5 M^–1 s^–1
ka (primary probe HP9, 37 °C): 2.9 × 10^5 M^–1 s^–1
